The target of the test is T1, 20S proteasome caspase-like activity (β1-subunit) (Homo sapiens, UniProt P28072).
T1 construct: gene PSMB6; with 20S proteasome
T1 sequence (P28072 35-239): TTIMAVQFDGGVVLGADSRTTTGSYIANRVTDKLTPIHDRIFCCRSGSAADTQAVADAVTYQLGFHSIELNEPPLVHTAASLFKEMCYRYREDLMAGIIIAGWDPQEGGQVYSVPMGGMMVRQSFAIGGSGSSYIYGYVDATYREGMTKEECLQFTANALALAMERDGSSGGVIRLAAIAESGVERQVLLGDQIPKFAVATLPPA
The test is described as follows: Proteasome-Glo caspase-like assay in MDA-MB-231, MCF7 and SKBR3 cells treated […] h with […]; reference inhibitor. It counts as cell-based.

On to `CC(C)C[C@H](NC(=O)[C@H](Cc1ccccc1)NC(=O)c1cnccn1)B(O)O` [Bortezomib], for which the “Proteasome-Glo caspase-like assay in MDA-MB-231, MCF7 and SKBR3 cells treated 24” value is “analyzed for the inhibition of chymotryptic-like, caspase-like, and tryptic-like intracellular proteasome activities”.

(Values after article PMC2790855, “BU-32: a novel proteasome inhibitor for breast cancer” (2009).)
